Laboratory results taken from article PMC7461116, “Synthesis, Anticonvulsant and Antinociceptive Activity of New Hybrid Compounds: Derivatives of 3-(3-Methylthiophen-2-yl)-pyrrolidine-2,5-dione” (International Journal of Molecular Sciences, 2020).
Counter-ions that a name gives are not always drawn. Like-named read-outs stand apart in the source and are kept apart here.

Tests used:
[1] = tested on: motor impairment on rotarod; assay: Rotarod test (acute neurotoxicity, NT); format: in vivo; conditions: ip, 100 mg/kg, 0.5 h
Method: In this test mice were trained to balance on an accelerating rotarod that rotated at 10 rotations per minute (Rotarod apparatus, May Commat RR0711, Turkey; rod diameter: 3 cm). During the training session, the animals were placed on a rotating rod for 3 min with an unlimited number of trials. Proper experiment was conducted 24 h after the training trial. On the test day, trained mice were intraperitoneally pretreated with the test compound at a dose of 100 mg/kg and just before the MES test were tested on the rotarod. Neurotoxicity was indicated by the inability of the animal to maintain equilibration on the rod for 1 min. […] Each group consisted of six animals.

[2] = Rotarod test (acute neurotoxicity, NT); conditions: mouse, in vivo, mice ip
[3] = tested on: maximal electroshock seizures; assay: Maximal electroshock seizure (MES) test; format: in vivo, mice; conditions: for responders at 100 mg/kg / ED50: Mus musculus; for responders at 100 mg/kg / MES: tested animals protected: ip, 0.5 h; for ED50: mice ip, 95% confidence limit in brackets
Method: The MES test was performed as previously described. Stimuli (25 mA, 0.2 s, 50 Hz) were generated by a constant current stimulator (Rodent shocker, Type 221, Hugo Sachs Elektronik, Germany) and delivered with the use of auricular electrodes. During the stimulation, each mouse was restrained manually, and immediately after the stimulation gently released for observation. The endpoint was the tonic extension of the hind limbs. Mice not displaying hindlimb tonic extension were considered to be protected from seizure. The initial anticonvulsant screening of the tested compounds was performed at a fixed dose of 100 mg/kg (four mice per group). […] To evaluate the ED50, at least three groups of animals were injected with various doses of tested compounds. Each group consisted of six animals.

[4] = tested on: PTZ-induced clonic seizures; assay: Subcutaneous pentylenetetrazole (scPTZ) seizure test; format: in vivo; conditions: mice, 100 mg/kg
Method: Clonic convulsions were induced by the subcutaneous (sc) administration of PTZ at a dose of 100 mg/kg. After PTZ injection, the mice were placed separately and observed during the next 30 min for the occurrence of clonic seizures. Clonic seizures were defined as clonus of the whole body lasting more than 3 s, with an accompanying loss of righting reflex. The latency to first clonus, the number of seizure episodes, and mortality rate were noted and compared with vehicle-treated and drug-treated groups. The absence of clonic convulsions within the observed time period was interpreted as the compound’s ability to protect against PTZ-induced seizures.

[5] = tested on: 6 Hz psychomotor seizures; assay: 6 Hz (32 mA) psychomotor seizure test; format: in vivo, mice; conditions: for ED50 / responders at 100 mg/kg: Mus musculus; for ED50 / PI (TD50/ED50), 6 Hz: mice ip; for ED50: 95% confidence limit in brackets; for responders at 100 mg/kg / 6 Hz: tested animals protected: ip, 0.5 h
Excerpt: Psychomotor seizures were induced via corneal stimulation (6 Hz, 32 mA, 0.2 ms rectangular pulse width, 3 s duration) using a constant-current device (ECT Unit 57800, Ugo Basile, Italy). A drop of 1% solution of lidocaine hydrochloride was applied to the mouse corneas before stimulation to provide local anesthesia and ensure optimal current conductivity. After the electrical stimulation, mice were gently released and observed for the presence or absence of seizure activity, being characterized by immobility associated with rearing, forelimb clonus, twitching of the vibrissae, stun, and Straub-tail. Lack of the above symptoms or their cessation within 10 s from the stimulation was considered as absence of seizure activity. The initial anticonvulsant screening of the tested compounds was performed at a fixed dose of 100 mg/kg (four mice per group). Then ED50 was calculated for active compounds as described above.

[6] = tested on: 6 Hz psychomotor seizures; conditions: mice ip, reference AEDs, cited from earlier work; for 6 Hz ED50: 32 mA
[7] = tested on: maximal electroshock seizures; conditions: cited from earlier work
[8] = molecular target: T1, TRPV1 receptor (Homo sapiens, UniProt Q8NER1); assay: TRPV1 (VR1) (h) antagonist effect, Cerep; format: biochemical; conditions: 100 µM
T1 construct: Cerep Laboratories (Poitiers, France)
Method: (§1) Binding and functional studies were performed commercially in Cerep Laboratories (Poitiers, France) using testing procedures described elsewhere (Na^+ channel-site 2 [27], L-type Ca^2+ channel, dihydropyridine site, TRPV1 (VR1) (h) (antagonist effect), GABA transporter (GAT)). All experiments were performed in duplicate.

[9] = tested on: Voltage-Sensitive Ca2+ Channel L-type (dihydropyridine site); assay: Radioligand binding, [3H]nitrendipine, Cerep; conditions: 100 µM, rat cerebral cortex synaptoneurosomal preparations
Method: as §1

[10] = tested on: Voltage-Sensitive Na+ Channel (site 2); assay: Radioligand binding, [3H]BTX, Cerep; conditions: 100 µM, rat cerebral cortex synaptoneurosomal preparations
Method: as §1

[11] = tested on: acetic acid-induced writhing behavior; assay: Acetic acid-induced writhing test; format: in vivo; conditions: mice, ip
Method: Mice were injected with the test compound or vehicle by intraperitoneally route (ip), and 30 min later, 0.9 % acetic acid solution was injected ip and the animals were placed into the glass beakers. The writhing response (lengthwise stretching of the torso, concave arching of the back, and extension of the hind limbs) was recorded for 30 min. The analgesic effect of the tested substances was determined by a decrease in the number of writhes observed and the results were expressed as percent inhibition of writhing behavior (as index of analgesia), and was calculated using the following formula: %Inhibition=(NA−NB)/NA×100, where NA—number of writhes in vehicle group, NB—number of writhes in drug-treated group.

[12] = tested on: latency time to pain reaction; assay: Hot plate test; format: in vivo; conditions: mice, ip, 30 mg/kg
Method: The hot plate test was carried out based on the Eddy and Leimbach (1953) method. In this test, the apparatus was equipped with an electrically heated surface with a temperature controller that maintains surface temperature to a set point. Herein, the temperature was set at 55 °C. The animals were treated ip either with the test compounds, or vehicle 30 min before placing the animal on a hot plate apparatus. Latency time to pain reaction, i.e., the time until the animal licked its back paws or jumped was recorded by means of the stopwatch.

[13] = Hepatotoxicity, PrestoBlue viability assay; format: cell-based, human; conditions: human, Hep G2 cells, 1–100 μM, read-out: Hep G2 cell viability
Method: (§2) Hepatotoxicity of tested compounds was assessed in PrestoBlue (Thermo Fisher Scientific, Waltham, MA, USA) Experiments on microplate reader (SpectraMax® iD3, Molecular Devices, San Jose, CA, USA) using human hepatocellular carcinoma cells (Hep G2) ATCC® […]. The cells were cultured in standard conditions (37 °C, 5% CO2), in Dulbecco’s Modified Eagle’s Medium-high glucose, (DMEM, Gibco, Thermo Fisher Scientific, Waltham, MA, USA) supplemented with 10% fetal bovine serum (Thermo Fisher Scientific, Waltham, MA, USA), with added 100 IU/mL penicillin (Sigma Aldrich, Steinheim, Germany) and 100 µg/mL streptomycin (Sigma Aldrich). PrestoBlue reagent is a resazurin-based solution that functions as a cell viability indicator. Metabolically active cells are capable of reducing the PrestoBlue reagent, with the colorimetric changes used as an indicator to quantify the viability of cells in culture. This change can be determined by measuring the fluorescence. After 24 h of incubation with the compounds PrestoBlue reagent was added to wells of a microplate. After 20 min of incubation at 37 °C, the fluorescence intensity (EX 530; EM 580 nm) was measured in a plate reader. Viability values were calculated as a percentage of live cells with respect to the control sample (DMSO). The negative control was medium without cells. Astemizole was used as a reference substance.

[14] = tested on: GABA Transporter (GAT); assay: Radioligand binding, [3H]GABA, Cerep; conditions: 100 µM, rat cerebral cortex synaptoneurosomal preparations
Method: as §1

[15] = tested on: Hep G2 cells; assay: Hepatotoxicity, PrestoBlue viability assay; format: cell-based, human; conditions: 24 h; for Hepatotoxicity in Hep G2 cells, in words: 1 and 10 μM; for Inhibition of viability of Hep G2 cells: 100 and 50 μM
Method: as §2

[16] = mice, 100 mg/kg, read-out: MES: number of mice protected/number of mice tested (converted)
[17] = mice, 100 mg/kg, 32 mA, read-out: 6 Hz: number of mice protected/number of mice tested (converted)
[18] = read-out: MES: number of mice protected/number of mice tested
[19] = read-out: 6 Hz: number of mice protected/number of mice tested

T1 sequence (Q8NER1 whole entry): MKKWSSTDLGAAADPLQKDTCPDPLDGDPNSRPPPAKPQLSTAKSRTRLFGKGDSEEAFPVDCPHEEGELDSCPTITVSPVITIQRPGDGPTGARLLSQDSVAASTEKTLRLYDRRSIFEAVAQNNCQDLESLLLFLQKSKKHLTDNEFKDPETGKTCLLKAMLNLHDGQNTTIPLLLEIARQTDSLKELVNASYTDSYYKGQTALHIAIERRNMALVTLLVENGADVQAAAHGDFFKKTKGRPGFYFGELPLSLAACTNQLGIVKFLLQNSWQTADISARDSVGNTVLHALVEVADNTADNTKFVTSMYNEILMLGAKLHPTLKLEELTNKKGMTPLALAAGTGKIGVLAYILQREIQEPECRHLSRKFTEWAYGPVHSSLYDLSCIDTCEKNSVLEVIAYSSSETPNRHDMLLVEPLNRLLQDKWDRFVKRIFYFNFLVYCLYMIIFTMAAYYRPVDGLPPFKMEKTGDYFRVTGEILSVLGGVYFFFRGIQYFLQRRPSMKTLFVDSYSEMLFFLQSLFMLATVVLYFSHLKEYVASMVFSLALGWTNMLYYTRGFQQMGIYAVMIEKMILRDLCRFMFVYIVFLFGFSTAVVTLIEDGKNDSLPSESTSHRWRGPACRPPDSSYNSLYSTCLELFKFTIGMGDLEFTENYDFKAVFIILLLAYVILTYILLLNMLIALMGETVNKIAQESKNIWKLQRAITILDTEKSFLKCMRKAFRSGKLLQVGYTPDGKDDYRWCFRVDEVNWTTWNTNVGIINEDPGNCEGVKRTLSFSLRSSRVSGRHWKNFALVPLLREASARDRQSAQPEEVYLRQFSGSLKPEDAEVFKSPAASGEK

SMILES | NT: number of mice with motor impairment/number of mice tested [1] | TD50 at 0.5 h [2] [mg/kg] | responders at 100 mg/kg [3, 16] [%] | ED50 ([5]; 32 mA) [mg/kg] | responders at 100 mg/kg [5, 17] [%] | TRPV1 antagonist effect [8] [%] | % Inhibition of Control Specific Binding, Voltage-Sensitive Ca2+ Channel L-typ [9] [%] | % Inhibition of Control Specific Binding, Voltage-Sensitive Na+ Channel (site 2) [10] [%] | 6 Hz: tested animals protected ([5]; mice, 100 mg/kg, 32 mA) | Reduction of number of writhes (inhibition of writhing behavior) ([11]; 30 mg/kg) [%] | Hot plate: prolongation of latency time to pain reaction [12] | further results
Cc1ccsc1C1CC(=O)N(CC(=O)N2CCN(c3cccc(Cl)c3)CC2)C1=O (racemic) [Compound 14, (R,S)-1-(2-(4-(3-Chlorophenyl)piperazin-1-yl)-2-oxoethyl)-3-(3-methylthiophen-2-yl)pyrrolidine-2,5-dione] | 0/4 | > 300 | 0 | 153 | 50 | – | – | – | – | – | – | scPTZ: effect in words [4]: no significant effect
CCC1(C)CC(=O)NC1=O (centres unmarked) [ETX, ethosuximide] | – | – | – | – | – | – | – | – | – | – | – | 6 Hz ED50 [6]: 221.7 (183.0–268.5) mg/kg; PI (TD50/ED50), 6 Hz [6]: 3.2 (6 Hz); MES: protection in words [7]: did not show protection; MES ED50 ([7]; mice ip, reference AEDs): > 500 mg/kg
Cc1ccsc1C1CC(=O)N(CCN2CCOCC2)C1=O (racemic) [Compound 3, (R,S)-3-(3-Methylthiophen-2-yl)-1-(2-morpholinoethyl)pyrrolidine-2,5-dione hydrochloride] | 0/4 | > 200 | 25 | 74.3 | 100 | 14.8 | −1.1 | 15.6 | 100% | 34 | inactive | scPTZ: tested animals protected [4]: 50%; scPTZ: latency time to first seizure episode ([4]; control 436.8 ± 91.94 s): 1435 ± 234.9 s; scPTZ: prolongation of latency time to first seizure episode ([4]; vs control, p < 0.001): 228%; Reduction of number of writhes (inhibition of writhing behavior) ([11]; 45 mg/kg): 39%; viability at 24 h [13]: > 94%; % Inhibition of Control Specific Binding, GABA Transporter (GAT) [14]: −1.1%
Cc1ccsc1C1CC(=O)N(CCCN2CCN(c3cccc(C(F)(F)F)c3)CC2)C1=O (racemic) [Compound 6, (R,S)-3-(3-Methylthiophen-2-yl)-1-(3-(4-(3-(trifluoromethyl)phenyl)piperazin-1-yl)propyl)pyrrolidine-2,5-dione hydrochloride] | 4/4 | < 100 | – | 78.3 | – | 74.8 | 69.9 | 96.7 | at least 75% | 27 | 49% | responders at 100 mg/kg [3, 18]: 25%; responders at 100 mg/kg [5, 19]: 75%; PI (TD50/ED50), 6 Hz [5]: < 1.28; Hepatotoxicity in Hep G2 cells, in words [15]: no hepatotoxicity; Inhibition of viability of Hep G2 cells [15]: 13–28%
CCCC(CCC)C(=O)O [VPA, valproic acid] | – | – | – | – | – | – | – | – | – | – | – | 6 Hz ED50 [6]: 130.6 (117.6–145.2) mg/kg; PI (TD50/ED50), 6 Hz [6]: 3.3; PI (TD50/ED50), MES ([7]; mice ip, reference AEDs): 1.7
Cc1ccsc1C1CC(=O)N(CCCN2CCOCC2)C1=O (racemic) [Compound 4, (R,S)-3-(3-Methylthiophen-2-yl)-1-(3-morpholinopropyl)pyrrolidine-2,5-dione hydrochloride] | 0/4 | < 200 | – | 75.6 | – | – | 39.7 | 42.1 | at least 75% | 29.8 | inactive | responders at 100 mg/kg [3, 18]: 75%; ED50 [3]: 62.1 mg/kg; MES: tested animals protected ([3]; mice, 100 mg/kg): 75%; scPTZ: effect in words [4]: no significant effect; responders at 100 mg/kg [5, 19]: 75%; PI (TD50/ED50), 6 Hz [5]: < 2.65; viability at 24 h [13]: > 94%; % Inhibition of Control Specific Binding, GABA Transporter (GAT) [14]: −3.2%
Cc1ccsc1C1CC(=O)N(CCCN2CCN(c3ccc(Cl)c(Cl)c3)CC2)C1=O (racemic) [Compound 9, (R,S)-1-(3-(4-(3,4-Dichlorophenyl)piperazin-1-yl)propyl)-3-(3-methylthiophen-2-yl)pyrrolidine-2,5-dione hydrochloride] | 0/4 | > 300 | 50 | > 130 | 50 | 109.5 | −9.5 | 78.8 | – | 61.44 | 43% | ED50 [3]: > 130 mg/kg; MES: tested animals protected ([3]; mice, 100 mg/kg): 50%; Hepatotoxicity in Hep G2 cells, in words [15]: no hepatotoxicity; Inhibition of viability of Hep G2 cells [15]: 13–28%
